Article PMC8840612, “Inhibition of α-Glucosidase, Acetylcholinesterase, and Nitric Oxide Production by Phytochemicals Isolated from Millettia speciosa—In Vitro and Molecular Docking Studies” (Plants, 2022)
Values after ≈ are worked out from the molar mass of the structure shown. Read-outs that look alike come from different tables or passages of the source.

Key:
[1] = system: NO production in lipopolysaccharide (LPS)-stimulated RAW 264.7 cells; test: Inhibition of NO production in LPS-stimulated RAW 264.7 cells (Griess assay); assay type: cell-based; conditions: for IC50 / inhibition at 500 µg/mL: Mus musculus; for IC50: RAW264.7, LPS-stimulated RAW 264.7 cells; for IC50 / IC50 for the inhibition of NO production: tested 0.8–500 µg/mL, mean of three replicates ± SD; for inhibition at 500 µg/mL: RAW264.7; for inhibition at 500 µg/mL / IC50 for the inhibition of NO production: LPS-stimulated RAW 264.7 cells
Procedure: It was supplemented with 10% fetal bovine serum (FBS) and incubated at 37 °C in humidified air with 5% CO2. […] Next, 100 μL of Griess reagent (50 μL of 1% (w/v) sulfanilamide in 5% (v/v) phosphoric acid and 50 μL of 0.1% (w/v) N-1-naphthylethylenediamine dihydrochloride) was added, and it was incubated at room temperature for about 10 min. The Griess Reagent System from Promega Cooperation (USA) was used to determine the presence of nitrite. The microplate reader was used to assess absorption at 540 nm. N^G-Methyl-L-arginine acetate (L-NMMA) (Sigma) was used as a positive control at doses of […]. […] The experiments were repeated at least three times independently.

[2] = system: RAW 264.7 cells; test: Cell viability (MTT) assay for cytotoxicity; assay type: cell-based
Procedure: The cells were diluted to a suitable cell density. One hundred eighty microliters of the cells were added to each well of the plate and incubated at 37 °C, 5% CO2 for 72 h. After the incubation, 10 µL of MTT solution (5 mg/mL) was added. […] Cell viability was calculated based on the formula as follows:Cell viability (%) = [(OD Sample)/(OD Control)] × 100%, where OD is the optical density recorded at 540 nm.

[3] = target: acetylcholinesterase (AChE) (Homo sapiens, UniProt P22303); test: biochemical
Sequence of acetylcholinesterase (AChE) (P22303 32-614): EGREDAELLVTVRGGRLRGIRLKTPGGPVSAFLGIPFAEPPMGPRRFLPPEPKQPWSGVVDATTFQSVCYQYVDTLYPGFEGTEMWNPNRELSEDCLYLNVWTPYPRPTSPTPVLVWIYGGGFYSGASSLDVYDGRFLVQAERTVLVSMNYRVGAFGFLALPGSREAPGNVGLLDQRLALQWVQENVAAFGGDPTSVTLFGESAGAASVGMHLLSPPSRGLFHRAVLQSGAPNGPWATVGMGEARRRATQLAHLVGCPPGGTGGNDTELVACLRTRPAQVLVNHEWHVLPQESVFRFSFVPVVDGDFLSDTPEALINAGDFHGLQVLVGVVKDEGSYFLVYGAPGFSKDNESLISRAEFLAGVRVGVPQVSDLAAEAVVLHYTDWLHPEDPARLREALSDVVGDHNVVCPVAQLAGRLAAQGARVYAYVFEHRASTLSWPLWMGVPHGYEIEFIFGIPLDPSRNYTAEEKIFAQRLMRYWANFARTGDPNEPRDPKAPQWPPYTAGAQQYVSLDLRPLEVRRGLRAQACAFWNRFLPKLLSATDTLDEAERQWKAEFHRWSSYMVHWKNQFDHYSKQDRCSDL
Procedure: The acetylcholinesterase activity was determined by a colorimetric assay based on Ellman’s methodology. […] They were dissolved in DMSO and then diluted with buffer (50 mM of Tris-HCl, with a pH of 8 containing 0.1 M NaCl), 0.1% bovine serum albumin (BSA), 25 µL of acetylthiocholine iodide. The plate was incubated at 25 °C for 15 min. […] Each assay was done in triplicate. The percentage of inhibition of AChE was determined by the following formula: Inhibition (%) = [(OD of control − OD of sample)/OD of control] × 100.

[4] = target: α-glucosidase from Saccharomyces cerevisiae (Saccharomyces cerevisiae, UniProt P53341); test: In vitro α-glucosidase inhibition (p-NPG substrate); conditions: for IC50: IC50 for inhibition of α-glucosidase, tested 1–256 µg/mL, mean of three replicates ± SD; for inhibition at 1 µg/mL / inhibition at 4 µg/mL / inhibition at 16 µg/mL / inhibition at 64 µg/mL / inhibition at 256 µg/mL: read-out: α-Glucosidase Inhibition (%);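 on all read-outs here: yeast α-glucosidase at 0.2 U/mL with p-nitrophenyl α-D-glucopyranoside substrate in 100 mM potassium phosphate pH 6.8, product read by absorbance at 410 nm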
Sequence of α-glucosidase from Saccharomyces cerevisiae (P53341 whole entry): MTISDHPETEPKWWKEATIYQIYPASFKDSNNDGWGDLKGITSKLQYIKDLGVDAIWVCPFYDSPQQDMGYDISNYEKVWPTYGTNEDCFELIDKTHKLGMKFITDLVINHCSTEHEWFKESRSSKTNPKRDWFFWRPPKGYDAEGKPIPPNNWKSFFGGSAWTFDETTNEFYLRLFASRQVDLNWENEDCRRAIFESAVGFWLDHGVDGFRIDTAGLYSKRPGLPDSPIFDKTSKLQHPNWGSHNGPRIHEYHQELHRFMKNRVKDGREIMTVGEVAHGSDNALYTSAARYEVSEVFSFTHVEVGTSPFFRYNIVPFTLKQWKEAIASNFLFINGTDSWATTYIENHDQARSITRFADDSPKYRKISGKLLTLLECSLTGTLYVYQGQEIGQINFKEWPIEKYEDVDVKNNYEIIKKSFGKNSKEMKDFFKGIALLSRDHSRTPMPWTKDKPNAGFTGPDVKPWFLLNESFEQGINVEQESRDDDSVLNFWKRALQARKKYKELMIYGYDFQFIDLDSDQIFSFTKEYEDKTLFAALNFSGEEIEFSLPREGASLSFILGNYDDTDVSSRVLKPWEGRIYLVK

[5] = system: NO formation; parameters: method as in doi:10.20307/nps.2019.25.1.34; conditions: at 40 µg/mL; ursolic acid isolated from Phryma leptostachya var. asiatica; cited from earlier work
[6] = system: α-glucosidase; conditions: cited from earlier work
[7] = system: NO production; conditions: at a high concentration of 1000 µM; cited from earlier work
[8] = cell viability assay, concentrations as in NO assay
[9] = tested 1 to 256 µg/mL, triplicate, read-out: IC50 for acetylcholinesterase inhibition (converted)

Row | Compound | IC50 [1] | Cytotoxicity against RAW 264.7 cells [2, 8] | IC50 [3] | Fold Change [4] | IC50 [4] | inhibition at 1 µg/mL [4] | inhibition at 4 µg/mL [4] | inhibition at 16 µg/mL [4] | inhibition at 64 µg/mL [4] | inhibition at 256 µg/mL [4] | inhibition at 500 µg/mL [1] | Reduction of cell growth ([2]; at 100 µg/mL, RAW 264.7 cells, MTT) | IC50 [3, 9] | Effect on NO formation [5] | Manner of α-glucosidase inhibition [6] | IC50 for the inhibition of NO production [1] | Cytotoxicity against RAW 264.7 cells [2] | Blocking of NO production [7] | IC50 α-glucosidase ([6]; compounds isolated from Clinopodium taxifolium)
1 | [H]/N=C(/NC)NCCC[C@H](N)C(=O)O [L-NMMA, N^G-Methyl-L-arginine acetate, reference compound] | 8.6 µg/mL |  |  |  |  |  |  |  |  |  |  |  |  |  |  |  |  |  | 
2 | CC(C)=CCC[C@](C)(O[C@@H]1O[C@H](CO[C@@H]2O[C@H](CO)[C@@H](O)[C@H](O)[C@H]2O)[C@@H](O)[C@H](O)[C@H]1O)[C@H]1CC[C@]2(C)[C@@H]1[C@H](O)C[C@@H]1[C@@]3(C)CC[C@H](O[C@@H]4O[C@H](CO)[C@@H](O)[C@H](O)[C@H]4O)C(C)(C)[C@@H]3CC[C@]12C [Compound 6, gypenoside XVII] | 93.9 ± 5.4 µg/mL (≈ 99.1 µM) | no cytotoxicity | > 270 µM | <0.663 | > 270 µM | 1% | 5% | 17% | 21% | 34% |  |  |  |  |  |  |  |  | 
3 | C[C@H]1[C@H](C)CC[C@]2(C(=O)O)CC[C@]3(C)C(=CC[C@@H]4[C@@]5(C)CC[C@H](O)C(C)(C)[C@@H]5CC[C@]43C)[C@H]12 [Compound 5, ursolic acid] | 43.9 ± 3.7 µg/mL (≈ 96.1 µM) | moderate cytotoxicity |  |  | 2.41 µM | 48.5% | 91.5% | 95% | 98% | 99% | 84% | 23.3% | 17.5 µM | 80.6% | non-competitive |  |  |  | 
4 | C[C@@H]1CC[C@]2(C(=O)O)CC[C@]3(C)C(=CC[C@@H]4[C@@]5(C)CC[C@H](O)[C@@](C)(CO)[C@@H]5CC[C@]43C)[C@@H]2[C@]1(C)O [Compound 2, rotundic acid] | 241 µg/mL (≈ 494 µM) |  |  | <0.663 | > 524 µM | 1% | 1% | 1% | 4% | 33% |  |  | > 524 µM |  |  | 241.3 ± 8.2 µg/mL |  |  | 
5 | O=c1c(-c2ccc(O)cc2)coc2cc(O[C@@H]3O[C@H](CO)[C@@H](O)[C@H](O)[C@H]3O)ccc12 [Compound 9, daidzin] | > 500 µg/mL |  | > 615 µM | <0.663 | > 615 µM | 0% | 0% | 4% | 10% | 22% | 39.5% |  |  |  |  |  |  |  | 
6 | C[C@@H]1CC[C@]2(C(=O)O[C@@H]3O[C@H](CO)[C@@H](O)[C@H](O)[C@H]3O)CC[C@]3(C)C(=CC[C@@H]4[C@@]5(C)CC[C@H](O)[C@@](C)(CO)[C@@H]5CC[C@]43C)[C@@H]2[C@]1(C)O [Compound 3, pedunculoside] | 273 ± 8.2 µg/mL (≈ 420 µM) |  | > 393 µM | 0.918 | 284 µM | 1% | 3% | 9.5% | 32% | 60.5% |  |  |  |  |  |  | without cytotoxicity |  | 
7 | C[C@H]1O[C@H](O[C@H]2[C@H](O)[C@@H](O)[C@@H](O[C@H]3[C@H](O)[C@@H](O)C(O)O[C@@H]3CO)O[C@@H]2CO)[C@H](O)[C@@H](O)[C@@H]1N[C@H]1C=C(CO)[C@@H](O)[C@H](O)[C@H]1O (stereo partly shown) [acarbose, reference compound] |  |  |  |  |  | 0% | 5% | 18% | 23% | 72% |  |  |  |  |  |  |  |  | 
8 | COc1cc(/C=C/CO)cc(OC)c1O[C@@H]1O[C@H](CO)[C@@H](O)[C@H](O)[C@H]1O [Compound 8, syringin] | 303 ± 11 µg/mL (≈ 814 µM) |  | > 687 µM | <0.663 | > 687 µM | 0% | 1% | 8% | 9% | 12% |  |  |  |  |  |  |  | not blocked | 
9 | C[C@H]1[C@H](C)CC[C@]2(CO)CC[C@]3(C)C(=CC[C@@H]4[C@@]5(C)CC[C@H](O)C(C)(C)[C@@H]5CC[C@]43C)[C@H]12 [Compound 4, uvaol] | 246 µg/mL (≈ 557 µM) |  | > 578 µM |  |  |  |  |  |  |  |  |  |  |  |  | 246.5 ± 18.7 µg/mL |  |  | 521.0 µg/mL (≈ 1180 µM)
10 | COc1ccc2c(c1)OC[C@H]1c3cc4c(cc3O[C@@H]21)OCO4 [Compound 7, pterocarpin] | 229 ± 18.6 µg/mL (≈ 767 µM) |  |  | <0.663 | > 858 µM | 0% | 3% | 3% | 12% | 25% |  |  | > 858 µM |  |  |  |  |  | 
11 | C[C@H]1C(=O)CC[C@@H]2[C@]1(C)CC[C@H]1[C@@]2(C)CC[C@@]2(C)[C@@H]3CC(C)(C)CC[C@]3(C)CC[C@]12C [Compound 1, friedelin] | > 500 µg/mL |  | > 600 µM | <0.663 | > 600 µM | 1% | 1% | 13% | 20% | 23% | 37.6% |  |  |  |  |  |  |  | 
12 | C[C@@H]1O[C@@H](OC[C@H]2O[C@@H](Oc3c(-c4ccc(O)c(O)c4)oc4cc(O)cc(O)c4c3=O)[C@H](O)[C@@H](O)[C@@H]2O)[C@H](O)[C@H](O)[C@H]1O [Compound 10, rutin] | 450 ± 5.2 µg/mL (≈ 736 µM) |  | 419 µM |  | 3.6 µM | 34.5% | 74% | 78% | 82.5% | 85% |  |  |  |  |  |  |  |  | 
